Reference: patent EP3782997A1, “FUSED PYRIMIDINE COMPOUNDS AND PHARMACEUTICAL COMPOSITIONS THEREOF FOR THE TREATMENT OF FIBROTIC DISEASES” (Galapagos N.V., priority 2019, dated 2021)

Target: hENPP2 (Homo sapiens, UniProt Q13822)
Assay: Human ENPP2 (hENPP2) biochemical assay using LPC as substrate
Settings: 150 µM LPC (palmitoyl 16:0), 37°C for 30 min
Protocol: The principle of the assay conswasts in quantifying the released choline with an enzymatic method using choline oxidase and peroxidase. Choline oxydation by choline oxydase releases betaine and peroxide. The latter was quantified in presence of HRP that converts the peroxide detection agent TOOS (CAS# 82692-93-1) and 4-aminoantipyrine into quinoneimine dye. The appearance of quinoneimine dye was measured spectrophotometrically at 555 nm and was proportional to the amount of choline released by ENPP2. Inhibition of ENPP2 results in a decrease of the signal.
Compound IC50 values were determined in a hENPP2 (UniProtKB/SwwassProt Sequence ref Q13822) biochemical assay using LPC as substrate.
5 µL of a dilution series of compound, starting from 50 µM highest concentration, 1/3 dilution, was added to the wells. hENPP2 was used at a final concentration of 1 µg/mL or 3 µg/mL (it will be appreciated by the skilled person that the potency read out was independent of the enzyme concentration). The enzyme was diluted in 50 mM Trwas-HCl pH 8.5, 500 mM NaCl, 5 mM KCl, 10 mM CaCl2, 0.1% fatty acid free BSA in a total volume of 10 µL. The reaction was started by the addition of 10 µL of 150 µM LPC (palmitoyl 16:0; Avanti Polar Lipids, Inc., Cat# 855675) diluted in the same buffer as described above and the mixture was incubated at 37°C for 30 min. The reaction was terminated and choline quantified by the addition of a 25 µL of a mixture containing 0.6 U/mL of choline oxidase, 0.6 U/mL of peroxydase, 1.8 mM TOOS, 1.2 mM amino-antipyrine, 20 mM EGTA (stop-developer solution) diluted in the buffer described above. […] was read on an Envision plate reader (PerkinElmer, Inc.) after an incubation of 30 min at room temperature (excitation 555 nm).

IC50 [nM]	Compound
100 to 500	Cc1cc(C)cc(Nc2ncc3c(n2)CN(C2CCN(C(=O)c4ccc5[nH]nnc5c4)C2)C3)c1 (stereo not drawn) [compound 13, 1H-benzotriazol-5-yl-[3-[2-(3,5-dimethylanilino)-5,7-dihydropyrrolo[3,4-d]pyrimidin-6-yl]pyrrolidin-1-yl]methanone]
0.01 to 100	O=C(c1ccc2[nH]c(=O)oc2c1)N1CC(N2CCc3nc(Nc4cc(Cl)cc(C(F)(F)F)c4)ncc3C2)C1 [compound 14, 6-[3-[2-[3-chloro-5-(trifluoromethyl)anilino]-7,8-dihydro-5H-pyrido[4,3-d]pyrimidin-6-yl]azetidine-1-carbonyl]-3H-1,3-benzoxazol-2-one]
0.01 to 100	Cc1cc(Cl)cc(Nc2ncc3c(n2)CCN(C2CN(C(=O)c4ccc5[nH]c(=O)oc5c4)C2)C3)c1 [compound 15, 6-[3-[2-(3-chloro-5-methyl-anilino)-7,8-dihydro-5H-pyrido[4,3-d]pyrimidin-6-yl]azetidine-1-carbonyl]-3H-1,3-benzoxazol-2-one]
100 to 500	Cc1cc(Cl)cc(Nc2ncc3c(n2)CCN(C2CN(C(=O)c4ccc5[nH]nnc5c4)C2)C3)c1 [compound 16, 1H-benzotriazol-5-yl-[3-[2-(3-chloro-5-methyl-anilino)-7,8-dihydro-5H-pyrido[4,3-d]pyrimidin-6-yl]azetidin-1-yl]methanone]
0.01 to 100	O=C(c1ccc2[nH]c(=O)oc2c1)N1CC(N2Cc3cnc(Nc4cc(Cl)cc(C(F)(F)F)c4)nc3C2)C1 [compound 17, 6-[3-[2-[3-chloro-5-(trifluoromethyl)anilino]-5,7-dihydropyrrolo[3,4-d]pyrimidin-6-yl]azetidine-1-carbonyl]-3H-1,3-benzoxazol-2-one]
0.01 to 100	Cc1cc(C)cc(Nc2ncc3c(n2)CN(C2CN(C(=O)c4ccc5[nH]nnc5c4)C2)C3)c1 [compound 18, 1H-benzotriazol-5-yl-[3-[2-(3,5-dimethylanilino)-5,7-dihydropyrrolo[3,4-d]pyrimidin-6-yl]azetidin-1-yl]methanone]
100 to 500	Cc1cc(C)cc(Nc2ncc3c(n2)CN(C2CN(C(=O)c4ccc5[nH]ncc5c4)C2)C3)c1 [compound 19, [3-[2-(3,5-dimethylanilino)-5,7-dihydropyrrolo[3,4-d]pyrimidin-6-yl]azetidin-1-yl]-(1H-indazol-5-yl)methanone]
> 1000	Cc1cc(C)cc(Nc2ncc3c(n2)CN(C2CN(C(=O)c4cccc(S(N)(=O)=O)c4)C2)C3)c1 [compound 20, 3-[3-[2-(3,5-dimethylanilino)-5,7-dihydropyrrolo[3,4-d]pyrimidin-6-yl]azetidine-1-carbonyl]benzenesulfonamide]
0.01 to 100	COc1cc(Nc2ncc3c(n2)CN(C2CN(C(=O)c4ccc5[nH]c(=O)oc5c4)C2)C3)cc(OC)c1 [compound 21, 6-[3-[2-(3,5-dimethoxyanilino)-5,7-dihydropyrrolo[3,4-d]pyrimidin-6-yl]azetidine-1-carbonyl]-3H-1,3-benzoxazol-2-one]
0.01 to 100	O=C(c1ccc2[nH]nnc2c1)N1CC(N2Cc3cnc(Nc4cc(Cl)cc(C(F)(F)F)c4)nc3C2)C1 [compound 22, 1H-benzotriazol-5-yl-[3-[2-[3-chloro-5-(trifluoromethyl)anilino]-5,7-dihydropyrrolo[3,4-d]pyrimidin-6-yl]azetidin-1-yl]methanone]
0.01 to 100	COc1cc(C)cc(Nc2ncc3c(n2)CN(C2CN(C(=O)c4ccc5[nH]nnc5c4)C2)C3)c1 [compound 24, 1H-benzotriazol-5-yl-[3-[2-(3-methoxy-5-methyl-anilino)-5,7-dihydropyrrolo[3,4-d]pyrimidin-6-yl]azetidin-1-yl]methanone]
> 1000	Cc1cc(C)cc(Nc2ncc3c(n2)CN(C2CN(C(=O)c4ccc(=O)[nH]c4)C2)C3)c1 [compound 26, 5-[3-[2-(3,5-dimethylanilino) -5,7-dihydropyrrolo[3,4-d]pyrimidin-6-yl]azetidine-1-carbonyl]-1H-pyridin-2-one]
100 to 500	COc1cc(Nc2ncc3c(n2)CN(C2CCN(C(=O)c4ccc5[nH]nnc5c4)CC2)C3)cc(OC)c1 [compound 27, 1H-benzotriazol-5-yl-[4-[2-(3,5-dimethoxyanilino)-5,7-dihydropyrrolo[3,4-d]pyrimidin-6-yl]-1-piperidyl]methanone]
0.01 to 100	Cc1cc(Nc2ncc3c(n2)CN(C2CN(C(=O)c4ccc5[nH]c(=O)oc5c4)C2)C3)cc(C(F)(F)F)c1 [compound 28, 6-[3-[2-[3-methyl-5-(trifluoromethyl)anilino]-5,7-dihydropyrrolo[3,4-d]pyrimidin-6-yl]azetidine-1-carbonyl]-3H-1,3-benzoxazol-2-one]
0.01 to 100	Cc1cc(Nc2ncc3c(n2)CN(C2CN(C(=O)c4ccc5nn[nH]c5c4)C2)C3)cc(C(F)(F)F)c1 [compound 29, 3H-benzotriazol-5-yl-[3-[2-[3-methyl-5-(trifluoromethyl)anilino]-5,7-dihydropyrrolo[3,4-d]pyrimidin-6-yl]azetidin-1-yl]methanone]
0.01 to 100	O=C(c1ccc2[nH]nnc2c1)N1CC(N2Cc3cnc(Nc4ccc(C(F)(F)F)cc4)nc3C2)C1 [compound 30, 1H-benzotriazol-5-yl-[3-[2-[4-(trifluoromethyl)anilino]-5,7-dihydropyrrolo[3,4-d]pyrimidin-6-yl]azetidin-1-yl]methanone]
0.01 to 100	COc1cc(Nc2ncc3c(n2)CN(C2CN(C(=O)c4ccc5[nH]nnc5c4)C2)C3)cc(OC)c1 [compound 31, 1H-benzotriazol-5-yl-[3-[2-(3,5-dimethoxyanilino)-5,7-dihydropyrrolo[3,4-d]pyrimidin-6-yl]azetidin-1-yl]methanone]
> 1000	Cc1cc(C)cc(Nc2ncc3c(n2)CN(C2CN(C(=O)c4cc[nH]c(=O)c4)C2)C3)c1 [compound 32, 4-[3-[2-(3,5-dimethylanilino)-5,7-dihydropyrrolo[3,4-d]pyrimidin-6-yl]azetidine-1-carbonyl]-1H-pyridin-2-one]
> 1000	Cc1cc(C)cc(Nc2ncc3c(n2)CN(C2CCCN(C(=O)c4ccc5[nH]nnc5c4)C2)C3)c1 (stereo not drawn) [compound 33, 1H-benzotriazol-5-yl-[3-[2-(3,5-dimethylanilino)-5,7-dihydropyrrolo[3,4-d]pyrimidin-6-yl]-1-piperidyl]methanone]
0.01 to 100	Cc1cc(C)cc(Nc2ncc3c(n2)CN(C2CCN(C(=O)c4ccc5[nH]c(=O)oc5c4)C(C)C2)C3)c1 (stereo not drawn) [compound 35, 6-[4-[2-(3,5-dimethylanilino)-5,7-dihydropyrrolo[3,4-d]pyrimidin-6-yl]-2-methyl-piperidine-1-carbonyl]-3H-1,3-benzoxazol-2-one]
0.01 to 100	Cc1cc(C)cc(Nc2ncc3c(n2)CN(C2CCN(C(=O)c4ccc5[nH]nnc5c4)CC2(F)F)C3)c1 (stereo not drawn) [compound 37, 1H-benzotriazol-5-yl-[4-[2-(3,5-dimethylanilino)-5,7-dihydropyrrolo[3,4-d]pyrimidin-6-yl]-3,3-difluoro-1-piperidyl]methanone]
100 to 500	Cc1cc(C)cc(Nc2ncc3c(n2)CN(C2CN(C(=O)c4ccc(S(N)(=O)=O)cc4)C2)C3)c1 [compound 38, 4-[3-[2-(3,5-dimethylanilino)-5,7-dihydropyrrolo[3,4-d]pyrimidin-6-yl]azetidine-1-carbonyl]benzenesulfonamide]
> 1000	Cc1cc(C)cc(Nc2ncc3c(n2)CN(C2CCCN(C(=O)c4ccc5[nH]c(=O)oc5c4)C2)C3)c1 (stereo not drawn) [compound 39, 6-[3-[2-(3,5-dimethylanilino)-5,7-dihydropyrrolo[3,4-d]pyrimidin-6-yl]piperidine-1-carbonyl]-3H-1,3-benzoxazol-2-one]
0.01 to 100	Cc1cc(C)cc(Nc2ncc3c(n2)CN(C2CCN(C(=O)c4ccc5[nH]nnc5c4)CC2F)C3)c1 (stereo not drawn) [compound 40, 1H-benzotriazol-5-yl-[4-[2-(3,5-dimethylanilino)-5,7-dihydropyrrolo[3,4-d]pyrimidin-6-yl]-3-fluoro-1-piperidyl]methanone]
500 to 1000	Cc1cc(C)cc(Nc2ncc3c(n2)CN(C2CC4(C2)CN(C(=O)c2ccc5[nH]nnc5c2)C4)C3)c1 [compound 41, 1H-benzotriazol-5-yl-[6-[2-(3,5-dimethylanilino)-5,7-dihydropyrrolo[3,4-d]pyrimidin-6-yl]-2-azaspiro[3.3]heptan-2-yl]methanone]
100 to 500	COc1cc(Nc2ncc3c(n2)CN(C2CCN(C(=O)c4ccc5[nH]nnc5c4)C2)C3)cc(OC)c1 (stereo not drawn) [compound 42, 1H-benzotriazol-5-yl-[3-[2-(3,5-dimethoxyanilino)-5,7-dihydropyrrolo[3,4-d]pyrimidin-6-yl]pyrrolidin-1-yl]methanone]
500 to 1000	Cc1cncc(Nc2ncc3c(n2)CN(C2CN(C(=O)c4ccc5[nH]nnc5c4)C2)C3)c1 [compound 43, 1H-benzotriazol-5-yl-[3-[2-[(5-methyl-3-pyridyl)amino]-5,7-dihydropyrrolo[3,4-d]pyrimidin-6-yl]azetidin-1-yl]methanone]
